Laboratory results reported in US20260364184A1, “COMPOUND BASED ON OXOISOINDOLINYL-SUBSTITUTED TETRAHYDROPYRIMIDINE-DIONE AND USE THEREOF” (GLUETACS THERAPEUTICS (SHANGHAI) CO., LTD., priority 2023, published 2026).

Tests used:
Type in all cases: cell-based
Conditions in all cases: hPBMC Cell; 24 hours
WEE1 = molecular target: T1, WEE1 (Homo sapiens, UniProt P30291+Q96SW2); test: Western blot degradation of WEE1
T1 construct: expression of target proteins in cells; endogenous in cells
Procedure: (§1) Conventional Western blot assay was performed to evaluate the effects of the compounds of the present disclosure on the expression of target proteins in cells.
(§2) (1) Cell Seeding and Protein Harvesting: The selected cells were processed according to the cell seeding procedure and protein harvesting procedure in Table II-2.
(§3) (2) To the collected supernatant, 5×SDS sample loading buffer was added, followed by denaturation at 95 °C for 5 minutes. The denatured samples were then separated by SDS-PAGE electrophoresis on a polyacrylamide gel. Proteins were transferred to a nitrocellulose membrane (0.45 μm NC membrane), blocked with blocking buffer at room temperature for 1 hour, and subjected to antibody incubation and development procedures according to the antibody manufacturer's instructions (Cell Signaling Technology).
(§4) Half-Maximal Degradation Concentration value (the drug concentration required for degrading proteins by 50%, abbreviated as DC50) reads method: comparing the grayscale values of Western blot bands from drug-treated samples with those from blank DMSO-treated controls, and identifying the drug concentration range at which the grayscale value is half that of the DMSO-treated control bands.
(§5) DC50 values can be calculated using ImageJ software to measure grayscale values of Western blot bands from drug-treated samples. The concentration-response curve is fitted to estimate the drug concentration corresponding to half the grayscale value.
(§6) Target protein remaining (%) refers to the percentage of target protein remaining in cells after treatment with protein degrader compounds.
(§7) Calculation method for target protein remaining (%): Use ImageJ software to measure grayscale values of Western blot bands from drug (protein degrader)-treated samples. The grayscale value of drug-treated bands is divided by that of internal control protein bands, and the resulting quotient is normalized to obtain the relative percentage of remaining target protein after protein degrader treatment.
(§8) Target protein degradation rate (%)=1−target protein remaining (%).

IKZF1 = molecular target: T2, IKZF1 (Homo sapiens, UniProt Q13422+Q96SW2); test: Western blot degradation of IKZF1
T2 construct: expression of target proteins in cells; endogenous in cells
Procedure: as §1, §2, §3, §4, §5, §6, §7, §8

IKZF2 = molecular target: T3, IKZF2 (Homo sapiens, UniProt Q96SW2+Q9UKS7); test: Western blot degradation of IKZF2
T3 construct: expression of target proteins in cells; endogenous in cells
Procedure: as §1, §2, §3, §4, §5, §6, §7, §8

IKZF3 = molecular target: T4, IKZF3 (Homo sapiens, UniProt Q96SW2+Q9UKT9); test: Western blot degradation of IKZF3
T4 construct: expression of target proteins in cells; endogenous in cells
Procedure: as §1, §2, §3, §4, §5, §6, §7, §8

CK1α = molecular target: T5, CK1α (Homo sapiens, UniProt P48729+Q96SW2); test: Western blot degradation of CK1α
T5 construct: expression of target proteins in cells; endogenous in cells
Procedure: as §1, §2, §3, §4, §5, §6, §7, §8

GSPT1 = molecular target: T6, GSPT1 (Homo sapiens, UniProt P15170+Q96SW2); test: Western blot degradation of GSPT1
T6 construct: expression of target proteins in cells; endogenous in cells
Procedure: as §1, §2, §3, §4, §5, §6, §7, §8

T5 sequence (P48729 whole entry): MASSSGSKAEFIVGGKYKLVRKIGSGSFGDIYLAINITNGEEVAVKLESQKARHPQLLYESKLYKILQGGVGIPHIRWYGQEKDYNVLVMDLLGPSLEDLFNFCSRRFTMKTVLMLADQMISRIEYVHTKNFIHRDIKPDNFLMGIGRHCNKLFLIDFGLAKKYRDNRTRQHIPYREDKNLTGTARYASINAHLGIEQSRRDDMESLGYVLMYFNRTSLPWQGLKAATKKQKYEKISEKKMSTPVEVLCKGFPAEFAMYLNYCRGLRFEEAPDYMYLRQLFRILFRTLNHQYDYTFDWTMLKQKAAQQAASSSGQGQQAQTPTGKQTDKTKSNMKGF
T5 sequence (Q96SW2 whole entry): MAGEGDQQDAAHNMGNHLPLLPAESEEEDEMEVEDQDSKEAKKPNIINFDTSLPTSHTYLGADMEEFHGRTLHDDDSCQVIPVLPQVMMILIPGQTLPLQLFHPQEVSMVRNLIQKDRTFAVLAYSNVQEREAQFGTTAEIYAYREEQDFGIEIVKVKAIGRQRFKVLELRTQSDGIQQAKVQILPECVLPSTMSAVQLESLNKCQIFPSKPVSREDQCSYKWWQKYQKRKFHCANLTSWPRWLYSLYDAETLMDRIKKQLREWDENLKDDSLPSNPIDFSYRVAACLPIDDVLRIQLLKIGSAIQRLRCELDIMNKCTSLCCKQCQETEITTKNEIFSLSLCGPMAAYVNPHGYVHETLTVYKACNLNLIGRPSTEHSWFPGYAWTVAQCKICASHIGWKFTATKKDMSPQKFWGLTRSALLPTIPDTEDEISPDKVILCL
T5 sequence (Q16531 whole entry partner): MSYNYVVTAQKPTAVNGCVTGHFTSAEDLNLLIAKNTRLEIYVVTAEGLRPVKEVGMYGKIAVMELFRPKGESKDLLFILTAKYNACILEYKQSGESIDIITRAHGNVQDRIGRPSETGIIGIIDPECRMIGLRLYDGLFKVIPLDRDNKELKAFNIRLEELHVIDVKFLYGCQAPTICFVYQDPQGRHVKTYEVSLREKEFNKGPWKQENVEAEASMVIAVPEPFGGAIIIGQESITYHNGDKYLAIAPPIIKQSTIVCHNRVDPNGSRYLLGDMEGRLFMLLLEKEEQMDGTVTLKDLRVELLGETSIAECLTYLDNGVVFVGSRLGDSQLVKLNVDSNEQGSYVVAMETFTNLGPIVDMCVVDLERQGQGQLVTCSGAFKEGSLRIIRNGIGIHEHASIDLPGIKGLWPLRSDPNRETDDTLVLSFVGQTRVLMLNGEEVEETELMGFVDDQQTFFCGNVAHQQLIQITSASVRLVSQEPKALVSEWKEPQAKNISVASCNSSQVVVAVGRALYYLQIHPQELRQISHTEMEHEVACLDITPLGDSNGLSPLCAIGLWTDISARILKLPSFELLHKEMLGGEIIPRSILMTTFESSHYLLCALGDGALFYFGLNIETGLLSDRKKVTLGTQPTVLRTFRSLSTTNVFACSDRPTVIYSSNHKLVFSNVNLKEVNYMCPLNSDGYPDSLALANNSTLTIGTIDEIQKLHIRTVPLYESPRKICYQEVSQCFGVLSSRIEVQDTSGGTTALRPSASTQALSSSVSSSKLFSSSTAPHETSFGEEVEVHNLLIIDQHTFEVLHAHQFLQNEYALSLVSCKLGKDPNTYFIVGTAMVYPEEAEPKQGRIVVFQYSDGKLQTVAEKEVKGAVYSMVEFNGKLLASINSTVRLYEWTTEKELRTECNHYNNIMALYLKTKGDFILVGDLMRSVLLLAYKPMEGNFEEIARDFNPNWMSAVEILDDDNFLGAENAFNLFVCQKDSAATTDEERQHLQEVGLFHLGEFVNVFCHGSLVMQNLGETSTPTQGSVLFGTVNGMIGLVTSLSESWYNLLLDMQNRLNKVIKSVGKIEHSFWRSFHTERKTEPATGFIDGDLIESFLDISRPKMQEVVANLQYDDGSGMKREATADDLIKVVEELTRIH
T1 sequence (P30291 whole entry): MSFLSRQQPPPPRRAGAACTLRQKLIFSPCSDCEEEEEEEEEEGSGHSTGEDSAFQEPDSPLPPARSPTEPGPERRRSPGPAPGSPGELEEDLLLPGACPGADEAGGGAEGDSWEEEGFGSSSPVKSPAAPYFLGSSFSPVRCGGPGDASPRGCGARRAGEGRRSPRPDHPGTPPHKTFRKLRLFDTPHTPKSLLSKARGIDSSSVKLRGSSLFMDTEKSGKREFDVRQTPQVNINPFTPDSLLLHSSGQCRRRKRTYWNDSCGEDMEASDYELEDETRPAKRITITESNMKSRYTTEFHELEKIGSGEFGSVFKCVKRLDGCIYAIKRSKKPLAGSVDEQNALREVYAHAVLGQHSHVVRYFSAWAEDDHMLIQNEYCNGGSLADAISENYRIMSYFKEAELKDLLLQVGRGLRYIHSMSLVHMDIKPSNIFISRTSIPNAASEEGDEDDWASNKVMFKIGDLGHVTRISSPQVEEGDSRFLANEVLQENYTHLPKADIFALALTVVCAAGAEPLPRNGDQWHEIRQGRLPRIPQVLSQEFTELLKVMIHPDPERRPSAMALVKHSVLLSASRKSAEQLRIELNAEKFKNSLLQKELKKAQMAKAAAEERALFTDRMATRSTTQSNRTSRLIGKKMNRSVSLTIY
T1 sequence (Q96SW2 whole entry): as the sequence (Q96SW2 whole entry) above
T1 sequence (Q16531 whole entry partner): as the sequence (Q16531 whole entry partner) above
T3 sequence (Q9UKS7 whole entry): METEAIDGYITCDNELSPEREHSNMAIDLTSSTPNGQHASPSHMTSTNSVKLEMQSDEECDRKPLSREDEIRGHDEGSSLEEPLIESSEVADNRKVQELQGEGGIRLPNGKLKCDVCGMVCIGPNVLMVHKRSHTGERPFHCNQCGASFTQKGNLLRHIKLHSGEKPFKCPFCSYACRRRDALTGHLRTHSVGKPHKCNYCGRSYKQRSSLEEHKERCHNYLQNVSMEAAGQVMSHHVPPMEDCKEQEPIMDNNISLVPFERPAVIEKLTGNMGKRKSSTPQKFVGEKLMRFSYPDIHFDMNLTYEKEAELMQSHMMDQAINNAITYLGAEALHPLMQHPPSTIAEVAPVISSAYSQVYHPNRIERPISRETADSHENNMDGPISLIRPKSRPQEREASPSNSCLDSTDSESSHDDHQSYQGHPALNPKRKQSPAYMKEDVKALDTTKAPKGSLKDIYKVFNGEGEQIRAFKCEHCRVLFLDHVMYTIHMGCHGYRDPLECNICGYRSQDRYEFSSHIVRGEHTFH
T3 sequence (Q96SW2 whole entry): as the sequence (Q96SW2 whole entry) above
T3 sequence (Q16531 whole entry partner): as the sequence (Q16531 whole entry partner) above
T6 sequence (P15170 whole entry): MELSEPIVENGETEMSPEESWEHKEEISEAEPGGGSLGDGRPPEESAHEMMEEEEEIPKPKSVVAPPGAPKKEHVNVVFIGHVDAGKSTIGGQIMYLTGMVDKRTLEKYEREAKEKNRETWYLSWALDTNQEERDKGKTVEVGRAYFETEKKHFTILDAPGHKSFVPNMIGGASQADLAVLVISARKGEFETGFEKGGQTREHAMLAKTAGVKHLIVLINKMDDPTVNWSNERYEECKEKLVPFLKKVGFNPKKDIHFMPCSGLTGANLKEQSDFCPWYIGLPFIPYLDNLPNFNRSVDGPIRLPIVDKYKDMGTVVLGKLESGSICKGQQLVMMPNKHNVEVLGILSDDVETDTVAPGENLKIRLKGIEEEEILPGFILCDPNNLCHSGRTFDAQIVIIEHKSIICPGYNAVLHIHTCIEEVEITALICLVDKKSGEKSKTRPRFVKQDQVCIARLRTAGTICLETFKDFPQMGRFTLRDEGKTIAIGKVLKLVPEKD
T6 sequence (Q96SW2 whole entry): as the sequence (Q96SW2 whole entry) above
T6 sequence (Q16531 whole entry partner): as the sequence (Q16531 whole entry partner) above
T2 sequence (Q13422 whole entry): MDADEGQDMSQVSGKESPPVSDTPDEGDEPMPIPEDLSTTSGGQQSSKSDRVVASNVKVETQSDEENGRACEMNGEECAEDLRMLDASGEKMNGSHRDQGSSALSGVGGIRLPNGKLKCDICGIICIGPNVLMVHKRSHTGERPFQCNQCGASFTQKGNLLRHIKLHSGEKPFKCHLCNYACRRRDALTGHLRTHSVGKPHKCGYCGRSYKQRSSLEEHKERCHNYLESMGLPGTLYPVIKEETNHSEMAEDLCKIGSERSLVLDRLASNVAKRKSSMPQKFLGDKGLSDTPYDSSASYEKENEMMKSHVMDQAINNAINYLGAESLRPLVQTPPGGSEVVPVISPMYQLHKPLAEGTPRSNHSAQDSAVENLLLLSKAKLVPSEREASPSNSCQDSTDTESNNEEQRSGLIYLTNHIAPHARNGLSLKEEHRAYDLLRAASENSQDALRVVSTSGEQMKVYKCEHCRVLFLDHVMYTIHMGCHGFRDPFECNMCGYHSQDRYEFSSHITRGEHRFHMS
T2 sequence (Q96SW2 whole entry): as the sequence (Q96SW2 whole entry) above
T2 sequence (Q16531 whole entry partner): as the sequence (Q16531 whole entry partner) above

Structure (SMILES)	Degradation of substrate protein WEE1 (substrate protein remaining %) (WEE1)	Degradation of substrate protein IKZF1 (substrate protein remaining %) (IKZF1)	Degradation of substrate protein IKZF2 (substrate protein remaining %) (IKZF2)	Degradation of substrate protein IKZF3 (substrate protein remaining %) (IKZF3)	Degradation of substrate protein CK1α (substrate protein remaining %) (CK1α)	Degradation of substrate protein GSPT1 (substrate protein remaining %) (GSPT1)
O=C1CCN(N2C(=O)c3ccc(Br)cc3C2=O)C(=O)N1 [GT-04511, 5-bromo-2-(2,4-dioxotetrahydropyrimidin-1(2H)-yl)isoindoline-1,3-dione]	B (80%<substrate protein remaining %≤100%)	B (80%<substrate protein remaining %≤100%)	B (80%<substrate protein remaining %≤100%)	B (80%<substrate protein remaining %≤100%)	B (80%<substrate protein remaining %≤100%)	A (0%≤substrate protein remaining %≤80%)
O=C1CCN(N2Cc3cc(CO)ccc3C2=O)C(=O)N1 [GT-05567, 1-(5-(hydroxymethyl)-1-oxoisoindolin-2-yl)dihydropyrimidine-2,4(1H, 3H)-dione]	A (0%≤substrate protein remaining %≤80%)	A (0%≤substrate protein remaining %≤80%)	B (80%<substrate protein remaining %≤100%)	A (0%≤substrate protein remaining %≤80%)	A (0%≤substrate protein remaining %≤80%)	A (0%≤substrate protein remaining %≤80%)
O=C1CCN(N2C(=O)c3ccc(N4CCC(N5CCNCC5)C(F)(F)C4)cc3C2=O)C(=O)N1 (stereo not drawn) [GT-04990, 5-(3,3-difluoro-4-(piperazin-1-yl)piperidin-1-yl)-2-(2,4-dioxotetrahydropyrimidin-1(2H)-yl)isoindoline-1,3-dione]	A (0%≤substrate protein remaining %≤80%)	B (80%<substrate protein remaining %≤100%)	B (80%<substrate protein remaining %≤100%)	B (80%<substrate protein remaining %≤100%)	B (80%<substrate protein remaining %≤100%)	A (0%≤substrate protein remaining %≤80%)
O=C1CCN(N2C(=O)c3ccc(CBr)cc3C2=O)C(=O)N1 [GT-06979, 5-(bromomethyl)-2-(2,4-dioxotetrahydropyrimidin-1(2H)-yl)isoindoline-1,3-dione]	A (0%≤substrate protein remaining %≤80%)	B (80%<substrate protein remaining %≤100%)	A (0%≤substrate protein remaining %≤80%)	B (80%<substrate protein remaining %≤100%)	B (80%<substrate protein remaining %≤100%)	B (80%<substrate protein remaining %≤100%)
O=C1CCN(N2C(=O)c3cccc(F)c3C2=O)C(=O)N1 [GT-05576, 2-(2,4-dioxotetrahydropyrimidin-1(2H)-yl)-4-fluoroisoindoline-1,3-dione]	A (0%≤substrate protein remaining %≤80%)	B (80%<substrate protein remaining %≤100%)	A (0%≤substrate protein remaining %≤80%)	A (0%≤substrate protein remaining %≤80%)	A (0%≤substrate protein remaining %≤80%)	A (0%≤substrate protein remaining %≤80%)
O=C1CCN(N2C(=O)c3ccc(N4CC5CCC(C4)N5)cc3C2=O)C(=O)N1 [GT-05589, 5-(3,8-diazabicyclo[3.2.1]octan-3-yl)-2-(2,4-dioxotetrahydropyrimidin-1(2H)-yl)isoindoline-1,3-dione]	B (80%<substrate protein remaining %≤100%)	B (80%<substrate protein remaining %≤100%)	B (80%<substrate protein remaining %≤100%)	A (0%≤substrate protein remaining %≤80%)	B (80%<substrate protein remaining %≤100%)	B (80%<substrate protein remaining %≤100%)
O=CC1CCN(c2ccc3c(c2)C(=O)N(N2CCC(=O)NC2=O)C3=O)CC1 [GT-05580, 1-(2-(2,4-dioxotetrahydropyrimidin-1(2H)-yl)-1,3-dioxoisoindolin-5-yl)piperidine-4-carbaldehyde]	A (0%≤substrate protein remaining %≤80%)	B (80%<substrate protein remaining %≤100%)	A (0%≤substrate protein remaining %≤80%)	A (0%≤substrate protein remaining %≤80%)	A (0%≤substrate protein remaining %≤80%)	A (0%≤substrate protein remaining %≤80%)
O=C1CCN(N2C(=O)c3cc(N4CCNCC4)cc(F)c3C2=O)C(=O)N1 [GT-05593, 2-(2,4-dioxotetrahydropyrimidin-1(2H)-yl)-4-fluoro-6-(piperazin-1-yl)isoindoline-1,3-dione]	B (80%<substrate protein remaining %≤100%)	B (80%<substrate protein remaining %≤100%)	A (0%≤substrate protein remaining %≤80%)	B (80%<substrate protein remaining %≤100%)	B (80%<substrate protein remaining %≤100%)	A (0%≤substrate protein remaining %≤80%)
O=C1CCN(N2C(=O)c3ccc(N4C[C@@H]5C[C@H]4CN5)cc3C2=O)C(=O)N1 [GT-05582, 5-((1S, 4S)-2,5-diazabicyclo[2.2.1]heptan-2-yl)-2-(2,4-dioxotetrahydropyrimidin-1(2H)-yl)isoindoline-1,3-dione]	A (0%≤substrate protein remaining %≤80%)	B (80%<substrate protein remaining %≤100%)	A (0%≤substrate protein remaining %≤80%)	A (0%≤substrate protein remaining %≤80%)	A (0%≤substrate protein remaining %≤80%)	A (0%≤substrate protein remaining %≤80%)
O=CC1CCN(c2cccc3c2C(=O)N(N2CCC(=O)NC2=O)C3=O)CC1 [GT-05590, 1-(2-(2,4-dioxotetrahydropyrimidin-1(2H)-yl)-1,3-dioxoisoindolin-4-yl)piperidine-4-carbaldehyde]	B (80%<substrate protein remaining %≤100%)	B (80%<substrate protein remaining %≤100%)	B (80%<substrate protein remaining %≤100%)	A (0%≤substrate protein remaining %≤80%)	B (80%<substrate protein remaining %≤100%)	B (80%<substrate protein remaining %≤100%)
